Measured values published in ChEMBL document CHEMBL1201862, “PubChem BioAssay data set” (2004).
Where “and” joins values, the source holds several entries; their conditions need not be identical. Equal entries are not always repeated. Structures can show the parent of a compound that is named as a salt.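 Where inhibition never reached the appropriate level, the endpoint shown equals the highest concentration tested. Otherwise, values were interpolated linearly from a five-concentration, 48-hour dose response in 96-well plates. Abbreviation: GI50, concentration required for 50% inhibition of growth.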 Calls of active or inactive are those of the source. No stated cut-off is given here; in the data, active = GI50 up to about 1.1 µM and inactive = higher.

Key:
Experiment in all cases: growth of human tumour cells (NCI), 48 h
BT-549 = tested on: BT-549
DMS-114 = tested on: DMS-114
DMS-273 = tested on: DMS-273
HOP-92 = tested on: HOP-92
Hs-578T = tested on: Hs-578T
KM-20L2 = tested on: KM-20L2
M19-MEL = tested on: M19-MEL
MCF7 = tested on: MCF7
MDA-N = tested on: MDA-N
NCI/ADR-RES = tested on: NCI/ADR-RES
SNB-78 = tested on: SNB-78
TK-10 = tested on: TK-10
M14 = tested on: M14
Malme-3M = tested on: Malme-3M
NCI-H226 = tested on: NCI-H226
NCI-H522 = tested on: NCI-H522
SNB-19 = tested on: SNB-19
U-251 = tested on: U-251
SK-OV-3 = tested on: SK-OV-3
A498 = tested on: A498

Row | SMILES | GI50 (BT-549) | GI50 (DMS-114) | GI50 (DMS-273) | GI50 (HOP-92) | GI50 (Hs-578T) | GI50 (KM-20L2) | GI50 (M19-MEL) | GI50 (MCF7) | GI50 (MDA-N) | GI50 (NCI/ADR-RES) | GI50 (SNB-78) | GI50 (TK-10) | GI50 (M14) | GI50 (Malme-3M) | GI50 (NCI-H226) | GI50 (NCI-H522) | GI50 (SNB-19) | GI50 (U-251) | GI50 (SK-OV-3) | GI50 (A498)
1 | Nc1ccc2cc3ccc(N)cc3nc2c1 [PROFLAVINE SULFATE] | 3.19 µM (inactive) | 1.21 µM (inactive) | 0.839 µM (active) | 1.45 µM (inactive) and 2.49 µM (inactive) | 2.57 µM (inactive) | 0.767 µM (active) | 1.79 µM (inactive) | 0.638 µM (active) | 1.21 µM (inactive) | 1.58 µM (inactive) | 1.12 µM (active) | 2.7 µM (inactive) and 4.33 µM (inactive) | – | – | – | – | – | – | – | –
2 | CC1CC2C3CC(F)C4=CC(=O)C=CC4(C)C3(F)C(O)CC2(C)C1(O)C(=O)COC(=O)C(C)(C)C (stereo unspecified) | – | > 100 µM (inactive) | > 100 µM (inactive) | > 100 µM (inactive) | – | > 100 µM (inactive) | > 100 µM (inactive) | – | – | – | 27.5 µM (inactive) | 77.1 µM (inactive) | > 100 µM (inactive) | > 100 µM (inactive) | > 100 µM (inactive) | 71 µM (inactive) | 64.3 µM (inactive) | > 100 µM (inactive) | – | –
3 | O=C(O)CN1CCCC(Cc2c[nH]c3ccccc23)C1 (stereo unspecified) | > 100 µM (inactive) | – | – | > 100 µM (inactive) | > 100 µM (inactive) | – | – | – | > 100 µM (inactive) | > 100 µM (inactive) | – | > 100 µM (inactive) | > 100 µM (inactive) | > 100 µM (inactive) | > 100 µM (inactive) | – | – | – | > 100 µM (inactive) | –
4 | CC(=O)N/C(=C\c1ccc(/C=C(\NC(C)=O)C2=NC3C(=O)c4ccccc4C(=O)C3N2)cc1)C1=NC2C(=O)c3ccccc3C(=O)C2N1 (stereo unspecified) | – | 8 µM (inactive) | 19.6 µM (inactive) | 30.8 µM (inactive) | – | 39.7 µM (inactive) | 92.3 µM (inactive) | – | – | – | 70.3 µM (inactive) | 12.1 µM (inactive) | 49.8 µM (inactive) | – | 15.4 µM (inactive) | 7.69 µM (inactive) | 19 µM (inactive) | 9.98 µM (inactive) | 6.53 µM (inactive) | 5.57 µM (inactive)
5 | O=C(O)c1cccc2cccc(-c3c4ccc(=O)cc-4oc4cc(O)ccc34)c12 | > 100 µM (inactive) | – | – | – | 93.1 µM (inactive) | – | – | > 100 µM (inactive) | 71 µM (inactive) | > 100 µM (inactive) | – | > 100 µM (inactive) | > 100 µM (inactive) | > 100 µM (inactive) | – | > 100 µM (inactive) | > 100 µM (inactive) | > 100 µM (inactive) | 33.4 µM (inactive) | > 100 µM (inactive)
6 | O=C1c2ccccc2C(=O)c2c1ccc1c2N=C(c2ccc(F)cc2)CC(c2ccc(Cl)c(Cl)c2)N1 (stereo unspecified) | – | 10.1 µM (inactive) | – | 22.7 µM (inactive) | – | 15.7 µM (inactive) | 17.2 µM (inactive) | – | – | – | 19.2 µM (inactive) | 13.8 µM (inactive) | 18.2 µM (inactive) | – | 22.2 µM (inactive) | 7.29 µM (inactive) | 13.1 µM (inactive) | 12.1 µM (inactive) | 12.7 µM (inactive) | 19.5 µM (inactive)
7 | CSc1sc(=S)sc1SC | – | > 100 µM (inactive) | 77.8 µM (inactive) | > 100 µM (inactive) | – | > 100 µM (inactive) | > 100 µM (inactive) | > 100 µM (inactive) | – | 25.7 µM (inactive) | > 100 µM (inactive) | – | – | > 100 µM (inactive) | > 100 µM (inactive) | > 100 µM (inactive) | > 100 µM (inactive) | > 100 µM (inactive) | > 100 µM (inactive) | > 100 µM (inactive)
8 | O=C1c2cccc3cc4ccccc4c(c23)C(=O)N1CCNCCN1C(=O)c2cccc3cc4ccccc4c(c23)C1=O | – | 0.23 µM (active) | 0.277 µM (active) | 0.449 µM (active) | – | 0.518 µM (active) | 0.508 µM (active) | 0.282 µM (active) | – | 0.522 µM (active) | 0.518 µM (active) | – | – | 0.465 µM (active) | 2.21 µM (inactive) | 1.53 µM (inactive) | 0.39 µM (active) | 0.282 µM (active) | 1.34 µM (inactive) | 0.716 µM (active)
9 | CCC/C=C/C=C\C(=O)O[C@@H]1[C@@H](C)[C@]2(O)[C@@H]3C=C(C)C(=O)[C@H]3CC(COC(C)=O)=C[C@H]2[C@@H]2C(C)(C)[C@]12OC(C)=O | – | 45.1 µM (inactive) | 22.6 µM (inactive) | 43.8 µM (inactive) | – | 44.4 µM (inactive) | 32.2 µM (inactive) | 37.8 µM (inactive) | – | 50.7 µM (inactive) | 44.9 µM (inactive) | – | – | 33.2 µM (inactive) | 46.6 µM (inactive) | 27.7 µM (inactive) | 54.1 µM (inactive) | 17.6 µM (inactive) | 81.7 µM (inactive) | 1.99 µM (inactive)
10 | CCOC(=O)CNC(=O)N(CC)C12CC3CC(CC(C3)C1)C2 | – | 107 µM (inactive) | 132 µM (inactive) | 60.1 µM (inactive) | – | 117 µM (inactive) | 153 µM (inactive) | 148 µM (inactive) | – | 151 µM (inactive) | 166 µM (inactive) | – | – | 133 µM (inactive) | 146 µM (inactive) | 123 µM (inactive) | 153 µM (inactive) | 119 µM (inactive) | 123 µM (inactive) | 115 µM (inactive)
11 | NC(=O)Nc1cc(O)ccc1/N=N/c1ccc(S(=O)(=O)Nc2ccccn2)cc1 | – | > 100 µM (inactive) | > 100 µM (inactive) | > 100 µM (inactive) | – | > 100 µM (inactive) | > 100 µM (inactive) | – | – | – | > 100 µM (inactive) | > 100 µM (inactive) | > 100 µM (inactive) | > 100 µM (inactive) | – | > 100 µM (inactive) | > 100 µM (inactive) | > 100 µM (inactive) | > 100 µM (inactive) | > 100 µM (inactive)
12 | COc1ccc(N2C(=O)C3c4[nH]c5cc(C)ccc5c4C4CCC(C(C)(C)C)CC4C3C2=O)cc1 (stereo unspecified) | – | – | – | – | 3.08 µM (inactive) | – | – | > 10 µM (inactive) | > 10 µM (inactive) | 3.66 µM (inactive) | – | > 10 µM (inactive) | > 10 µM (inactive) | > 10 µM (inactive) | > 10 µM (inactive) | 8.63 µM (inactive) | > 10 µM (inactive) | 5.43 µM (inactive) | > 10 µM (inactive) | 5.21 µM (inactive)
13 | NC(=S)N/N=C/c1ccc(OC(=O)COc2ccccc2Cl)cn1 | – | – | 21 µM (inactive) | 12.9 µM (inactive) | – | 40 µM (inactive) | 25.9 µM (inactive) | 10.5 µM (inactive) | – | 15.4 µM (inactive) | > 80.9 µM (inactive) | – | – | 24.4 µM (inactive) | 26.5 µM (inactive) | 18.1 µM (inactive) | 47.8 µM (inactive) | 25.1 µM (inactive) | > 67 µM (inactive) | > 72.8 µM (inactive)
